The subject of data set [1] is GFP-transfected P. berghei ANKA strain. The conditions noted are these: for Activity % / Survival days: oral single dose.
Another data set concerns P. berghei liver stages. As to the kind of experiment: Plasmodium berghei luciferase liver stage assay.
A further data set in a line: Rat pharmacokinetics. The class given is in vivo.
The subject of another data set is P. berghei (PbGFPCON507). Format: in vivo, Plasmodium berghei.
Data set [2] has as its system DDD107498-resistant P. falciparum lines. As to the kind of experiment: SYBR Green growth assay on DDD107498-selected resistant lines. The class given is cell-based. The conditions noted are these: Plasmodium falciparum.
The next data set has as its system P. berghei ookinetes. As to the kind of experiment: P. berghei ookinete development assay. The conditions noted are these: Plasmodium berghei, read-out: EC50, P. berghei ookinete.
The test system of data set [3] is P. falciparum clinical isolates. The data set can be described thus: Ex vivo P. falciparum field isolates assay. The class given is cell-based. The following applies: Plasmodium falciparum.
Data set [4] has as its system DNA/RNA synthesis in P. falciparum 3D7. The data set can be described thus: Metabolic labelling with [3H]-hypoxanthine. Format: cell-based, Plasmodium falciparum. The following applies: sensitive and drug-resistant parasites.
The nature of data set [5]: Plasma protein binding, equilibrium dialysis. Format: in vitro ADME, mouse, rat, human. (In general: Equilibrium dialysis compares concentrations on both sides of a semipermeable membrane.)
A short description of the next data set: Dog pharmacokinetics. The class given is in vivo. The following applies: Intravenous 1 mg/kg.
Data set [6] concerns MRC5 (human foetal lung fibroblasts). As to the kind of experiment: Cytotoxicity against mammalian cells, resazurin assay, MRC5. The class given is cell-based. (The colour change of resazurin is a common sign of viable cells or microbes.)
A further data set has as its system P. falciparum NF54. The data set can be described thus: Stage specificity studies in P. falciparum, synchronised cultures. The class given is cell-based, Plasmodium falciparum. The following applies: 4nM for 24 h.
In another data set the test system is P. falciparum. The data set can be described thus: Parasite Reduction Ratio.
Data set [7] deals with Plasmodium falciparum strain 3D7. As to the kind of experiment: P. falciparum. The class given is cell-based.
Data set [8] concerns liver schizont forms of P. yoelii. The data set can be described thus: P. yoelii liver stage assay. Format: cell-based. The following applies: Plasmodium yoelii, read-out: EC50, P. yoelii liver stage, liver schizont forms.
Data set [9] has as its system P. falciparum strains K1, W2, 7G8, TM90C2A, D6, V1/S, NF54. As to the kind of experiment: P. falciparum. The class given is cell-based, Plasmodium falciparum. The following applies: compared with 3D7.
Data set [10] deals with P. falciparum Pf3D7^0087/N9. The class given is in vivo, Plasmodium falciparum.
Data set [11] deals with P. vivax clinical isolates. As to the kind of experiment: Ex vivo P. vivax field isolates assay. Format: cell-based, Plasmodium vivax. The conditions noted are these: read-out: median EC50, P. vivax clinical isolates, isolates from Papua (Indonesia).
Data set [12] deals with luciferase-expressing P. berghei sporozoites. The conditions noted are these: blood sampling from the mice.
A short description of a further data set: Mouse pharmacokinetics. Format: in vivo. The conditions noted are these: Intravenous 1 mg/kg.
The mark [13] stands for this setting: 30 mg/kg, murine P. berghei model.
Where [14] appears, read: male, Sprague Dawley, rat, blood, po, 5 mg/kg.

We go through 9 molecules from paper PMC4700930 (Nature, 2015).

Like-named read-outs stand apart in the source and are kept apart here. Numbered stars: 1 amine (or outer) side, 2 acyl side, 3 side chain; on linkers, the order of the positions; unused ones are H or OH. Bridge positions count the residues as written; N and C are the ends. Square brackets hold non-standard residues; d marks the D form. Peptide text beside a SMILES is read from it. I, II: the chains in the order shown. Actinocin(9to1) = Cc1c2oc3c(C)ccc(C(=O)[*:1])c3nc-2c(C(=O)[*:2])c(N)c1=O; NMeV = CN[C@H](C(=O)O)C(C)C; Sar = CNCC(=O)O

For `CO[C@H]1O[C@@H]2O[C@@]3(C)CC[C@H]4[C@H](C)CC[C@@H]([C@H]1C)[C@@]24OO3` [Artemether], the Activity % in [1] (3 mg/kg) is reported as 59%; in [1] (10 mg/kg), 89%; in [1] (setting [13]), 98%. Besides, the Survival days in data set [1] (3 mg/kg) came to 6 days; in data set [1] (10 mg/kg) it was 6 days; in data set [1] (30 mg/kg), 7 days.

In the case of `C[C@H]1[C@H](OC(=O)CCC(=O)O)O[C@@H]2O[C@@]3(C)CC[C@H]4[C@H](C)CC[C@@H]1[C@@]24OO3` [Artesunate], the Activity % in data set [1] (3 mg/kg) is under 40%; in data set [1] (10 mg/kg), 75%. For the same molecule, the Survival days in data set [1] (3 mg/kg) stood at 6 days; in data set [1] (10 mg/kg), 6 days; in data set [1] (30 mg/kg) it was 9 days.

Turning to `O=C1C(O)=C([C@H]2CC[C@H](c3ccc(Cl)cc3)CC2)C(=O)c2ccccc21` [Atovaquone, reference compound], the EC50 in the data set with P. berghei liver stages (read-out: EC50, P. berghei liver stage, continuous treatment) stood at 0.3 nM.

`CCN(CC)CCCC(C)Nc1ccnc2cc(Cl)ccc12` (stereo not drawn) [Chloroquine]: the values for the Survival days in data set [1] (3 mg/kg), in data set [1] (10 mg/kg) and in data set [1] (30 mg/kg) were 7 days, 7 days and 10 days, respectively.

As to `O=C(NCCN1CCCC1)c1cc(-c2ccc(CN3CCOCC3)cc2)nc2ccc(F)cc12` [DDD107498], the CI in “Rat pharmacokinetics” (Rat, Intravenous 1 mg/kg) turned out to be 18 mL/min/g; in “Dog pharmacokinetics”, 30 mL/min/g; in the data set “Mouse pharmacokinetics” it was 12 mL/min/g. In the data set “Rat pharmacokinetics” (setting [14]), the bioavailability came out at 84%. This molecule had a half-life in the data set “Rat pharmacokinetics” (setting [14]) of 18 h. The “TB effect- sporozoite intensity” value in the data set on P. berghei (PbGFPCON507) (3 mg/kg oral) is 93.8%. Also, the “TB effect- sporozoite prevalence” value with P. berghei (PbGFPCON507) (3 mg/kg oral) was found to be 88.6%. In addition, the “reduction in infected mosquitoes (TB effect- oocyst prevalence)” value with P. berghei (PbGFPCON507) (3 mg/kg oral, day 10) is on record as 90.7%. For the same molecule, in the data set with P. berghei (PbGFPCON507) (3 mg/kg oral, day 10), the “reduction in oocysts per midgut (TB effect- oocyst intensity)” value is on record as 98.8%. Moreover, the “Inhibition in infection of naïve mice” value in the data set on P. berghei (PbGFPCON507) (3 mg/kg oral, multiple mosquito biting rates) was found to be 89.5%. In the data set on P. berghei (PbGFPCON507) (chain binomial model, reduction of R0, 100% coverage), this molecule had an Effect size of 90.5%. In addition, the IC50 in data set [2] (DD2, read-out: DDD107498 IC50, WT Dd2) was found to be 0.14 nM; in data set [2] (read-out: DDD107498 IC50, high-level resistant line EF2-L775F) it was 660 nM; in data set [2] (read-out: DDD107498 IC50, high-level resistant line EF2-Y186N), 3100 nM; in data set [2] (read-out: DDD107498 IC50, low-level resistant line EF2-E134D) it was 5.8 nM. The EC50 with P. berghei ookinetes was 5 nM; in [3] (read-out: Range of EC50, P. falciparum clinical isolates) it was 0.29 to 3.29 nM; in [3] (read-out: median EC50, P. falciparum clinical isolates), 0.81 nM; in [7] (Plasmodium falciparum, 3D7, read-out: EC50 against 3D7 parasites) it was 1 nM; in [8], about 1 nM; in data set [11], 0.51 nM. The EC50 in the data set with P. berghei liver stages (read-out: EC50, P. berghei liver stage, liver schizont forms) is about 1 nM. The “effect on DNA/RNA biosynthesis ([3H]-hypoxanthine incorporation)” value (shortened to “effect on DNA/RNA biosynthesis”) in data set [4] was “minimal effects”. The protein binding result in data set [5] is listed as “low protein binding”. For the same molecule, the “selectivity, human cells (MRC5 and Hep-G2) over parasite” value in data set [6] is > 20,000 fold. The “effect from the ring stage” value in the data set with P. falciparum NF54 was “formation of abnormal trophozoites”. Moreover, the “reduction in parasites, from the schizont stage” value with P. falciparum NF54 amounted to 98%. In addition, the “reduction in parasites, from the trophozoite stage” value with P. falciparum NF54 is 50%. Besides, the “lag before killing (effects reversible following wash-out)” value in the data set with P. falciparum (10 × EC50) is 24 to 48 h. In addition, in the data set with P. falciparum (tested at 0.1, 0.3, 1, 3 and 10 × EC50), the “concentration sufficient to produce maximal killing effects” value is at least 1 × EC50. For the same molecule, the Activity % in [1] (3 mg/kg) is on record as 99%; in [1] (10 mg/kg), 99.0%; in data set [1] (setting [13]), 99.1%. For the same molecule, the figures for the Survival days in [1] (3 mg/kg), in data set [1] (10 mg/kg) and in [1] (30 mg/kg) were 9 days, 14 days and 23 days, respectively. Besides, the “ED90 (90% reduction in parasitaemia)” value in data set [1] (single oral dose, mice infected with P. berghei) came out at 0.57 mg/kg. In data set [7] (P. falciparum 3D7, n=39), the “EC99 against 3D7 parasites” value worked out at 5.9 nM. Further, the EC90 in [7] (Plasmodium falciparum, 3D7, read-out: EC90 against 3D7 parasites) turned out to be 2.4 nM. Moreover, the mutagenicity entry in the data set “Mutagenicity” was “non-mutagenic”. In addition, the “activity against drug-resistant strains” value in data set [9] is “almost equally active”. The “minimum parasiticidal concentration (MPC)” value in data set [10] (asexual blood stage infections, blood of infected SCID mice) was in the range of 10 to 13 ng/mL. In addition, in [10] (dosed orally daily for 4 days, SCID mice, P. falciparum), the “ED90 on day 7 after infection” value is listed as 0.95 mg/kg per day. In addition, the “MPC, chemoprotection” value in data set [12] was in the range of 15 to 20 ng/mL.

On to `C[C@H]1[C@@H](O)O[C@@H]2O[C@@]3(C)CC[C@H]4[C@H](C)CC[C@@H]1[C@@]24OO3` [Dihydroartemsinin], for which the Activity % in data set [1] (3 mg/kg) is 61%; in data set [1] (10 mg/kg), 97%; in data set [1] (setting [13]) it was 99%. In addition, the Survival days in [1] (3 mg/kg) was 7 days; in data set [1] (10 mg/kg), 6 days; in data set [1] (30 mg/kg), 7 days.

With `OC(c1cc(C(F)(F)F)nc2c(C(F)(F)F)cccc12)C1CCCCN1` (stereo not drawn) [Mefloquine], the values for the Activity % in [1] (3 mg/kg) and in data set [1] (10 mg/kg) were under 40% and 95%, respectively. The Survival days in data set [1] (3 mg/kg) was found to be 7 days; in data set [1] (10 mg/kg), 16 days; in [1] (30 mg/kg), 22 days.

Regarding `Cc1c2oc3c(C)ccc(C(=O)N[C@@H]4C(=O)N[C@H](C(C)C)C(=O)N5CCC[C@H]5C(=O)N(C)CC(=O)N(C)[C@@H](C(C)C)C(=O)O[C@@H]4C)c3nc-2c(C(=O)N[C@@H]2C(=O)N[C@H](C(C)C)C(=O)N3CCC[C@H]3C(=O)N(C)CC(=O)N(C)[C@@H](C(C)C)C(=O)O[C@@H]2C)c(N)c1=O` [actinomycin D] (I: T[dV]P[Sar][NMeV] / II: T[dV]P[Sar][NMeV]; ester I:1-I:C, II:1-II:C; linker I:N-II:N via Actinocin(9to1)), in data set [4], the “effect on DNA/RNA biosynthesis” value was “significant dose-dependent reduction”.

On to `C[C@@H]1C[C@@H]([C@H](O)CC2CC(=O)NC(=O)C2)C(=O)[C@@H](C)C1` [cycloheximide], for which the “effect on DNA/RNA biosynthesis” value in [4] is given as “minimal effects”.

One may read the EC50 as the concentration at which the effect is half-maximal. The bioavailability is the share of a dose that reaches the circulation, judged against a reference dose that is usually intravenous. A low value points to poor availability. Broadly, the half-life is how long it takes for the measured level to halve. Low readings indicate fast loss, high ones slow loss. For orientation: IC50 means the concentration that gives 50% inhibition. A word on the EC90: it is the concentration needed for an effect of 90%.
